Consider 53 compounds from US8735387B2, “Oxazolopyrimidines as Edg-1 receptor agonists” (Sanofi, priority 2008, dated 2014).

The structures appear in SMILES notation.

T1 sequence (P21453 whole entry): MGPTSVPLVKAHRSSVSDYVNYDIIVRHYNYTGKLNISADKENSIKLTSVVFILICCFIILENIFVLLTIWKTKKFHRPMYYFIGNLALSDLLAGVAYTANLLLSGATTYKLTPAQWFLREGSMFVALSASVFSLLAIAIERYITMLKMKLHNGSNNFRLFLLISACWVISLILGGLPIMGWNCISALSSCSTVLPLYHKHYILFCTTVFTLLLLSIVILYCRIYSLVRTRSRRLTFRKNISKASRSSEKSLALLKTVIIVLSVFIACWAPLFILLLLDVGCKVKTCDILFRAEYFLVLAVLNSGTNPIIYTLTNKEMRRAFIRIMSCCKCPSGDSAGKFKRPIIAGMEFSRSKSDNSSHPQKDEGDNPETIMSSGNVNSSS

One experiment concerns the target T1, human Edg-1 receptor (Homo sapiens, UniProt P21453).
T1 construct: expressed in transfected cells; membrane preparation
Nature of the experiment: GTP-γ-S assay using human Edg-1 receptors (scintillation proximity assay, membrane preparation from CHO Flp-In cell line). It counts as biochemical. The conditions noted are these: example compound at 10 μM; relative to 10 μM S1P; GTP-γ-S SPA, human Edg-1 membranes. The method, boiled down:
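Membranes came from Flp-In CHO cells constitutively expressing human Edg-1 carrying an N-terminal FLAG tag. Compound-induced receptor activation was read as GTP-γ-S binding in a scintillation proximity format.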
For `CCCOc1nc(Cc2ccc(Cl)cc2)nc2oc(-c3cc(C)c(OCC(=O)N4CCC[C@H]4C(=O)O)c(C)c3)nc12` [Example 245], the “% Activation (Edg-1 receptor activation in percent of the activation by 10 μM S1P)” value is 144%. As for `CCOc1nc(CC2CCC2)nc2oc(-c3cccc(C)c3)nc12` [Example 163], the “% Activation (Edg-1 receptor activation in percent of the activation by 10 μM S1P)” value was determined as 118%. As to `CCCOc1nc(CN2CCCOCC2)nc2oc(-c3c(F)ccc(F)c3F)nc12` [Example 86], the “% Activation (Edg-1 receptor activation in percent of the activation by 10 μM S1P)” value is given as 120%. On to `CCOc1nc(Cc2ccc(Cl)cc2)nc2oc(-c3cc(C)c(O)c(C)c3)nc12` [Example 191], for which the “% Activation (Edg-1 receptor activation in percent of the activation by 10 μM S1P)” value is reported as 98%. Same read-out and setting: the same measure for `CCCOc1nc(CN2CCOCC2)nc2oc(-c3cccc(OC)c3)nc12` [Example 35]: 119%.

Take `CCCOc1nc(Cc2ccc(Cl)cc2)nc2oc(-c3cc(C)c(OCC(=O)N4CCOCC4)c(C)c3)nc12` [Example 306]: the “% Activation (Edg-1 receptor activation in percent of the activation by 10 μM S1P)” value is on record as 81%. `CCCOc1nc(CN2CCC(C(F)(F)F)CC2)nc2oc(-c3cccc(F)c3)nc12` [Example 94]: the “% Activation (Edg-1 receptor activation in percent of the activation by 10 μM S1P)” value was 82%.

As for `CCCOc1nc(Cc2ccc(Cl)cc2)nc2oc(-c3cc(C)c(OCC(=O)OCC(=O)O)c(C)c3)nc12` [Example 247], the “% Activation (Edg-1 receptor activation in percent of the activation by 10 μM S1P)” value was determined as 110%.

Consider `CCCOc1nc(CN2CCC(F)(F)CC2)nc2oc(-c3cc(OC)ccc3OC)nc12` [Example 81], for which the “% Activation (Edg-1 receptor activation in percent of the activation by 10 μM S1P)” value came out at 83%. For the compound `CCCOc1nc(Cc2ccc(Cl)cc2)nc2oc(-c3cccc(C)c3C)nc12` [Example 170], the “% Activation (Edg-1 receptor activation in percent of the activation by 10 μM S1P)” value came out at 89%. Still for that read-out and setting: the same measure for `CCCOc1nc(Cc2ccc(Cl)cc2)nc2oc(-c3cc(C)c(OCC(O)CNCCC(=O)O)c(C)c3)nc12` (centres unmarked) [Example 237]: 115%; for `CCCOc1nc(CN2CCCC(F)(F)C2)nc2oc(-c3cccc(F)c3)nc12` [Example 50]: 102%; for `FCCOc1nc(CN2CCOCC2)nc2oc(-c3cccc(F)c3)nc12` [Example 32]: 42%. Consider `CCCOc1nc(Cn2cnc(CO)c2)nc2oc(-c3cccc(F)c3)nc12` [Example 54], for which the “% Activation (Edg-1 receptor activation in percent of the activation by 10 μM S1P)” value is 30%.

As to `CCCOc1nc(CCc2ccc(Cl)cc2)nc2oc(-c3cccc(F)c3)nc12` [Example 6], the “% Activation (Edg-1 receptor activation in percent of the activation by 10 μM S1P)” value is recorded as 60%.

As for `CCCOc1nc(Cn2cnc(-c3ccccc3)c2)nc2oc(-c3cccc(F)c3)nc12` [Example 59], the “% Activation (Edg-1 receptor activation in percent of the activation by 10 μM S1P)” value is 30%. As to `CCCOc1nc(Cc2ccccc2)nc2oc(-c3cccc(OC)c3)nc12` [Example 317], the “% Activation (Edg-1 receptor activation in percent of the activation by 10 μM S1P)” value was 105%. On to `CCCOc1nc(Cc2ccc(Cl)cc2)nc2oc(-c3cc(C)c(OCC(=O)N4CC[C@H](O)C4)c(C)c3)nc12` [Example 231], for which the “% Activation (Edg-1 receptor activation in percent of the activation by 10 μM S1P)” value stood at 104%.

For `CCOc1nc(Cc2ccc(Cl)cc2)nc2oc(-c3cc(C)c(OCC(O)CNC4CCC(C)CC4)c(C)c3)nc12` (centres unmarked) [Example 265], the “% Activation (Edg-1 receptor activation in percent of the activation by 10 μM S1P)” value worked out at 132%.

Turning to `CCCOc1nc(CN2CC(=O)N(Cc3ccccc3)C2=O)nc2oc(-c3cccc(F)c3)nc12` [Example 146], the “% Activation (Edg-1 receptor activation in percent of the activation by 10 μM S1P)” value is listed as 56%.

For `CCOc1nc(Cc2ccc(Cl)cc2)nc2oc(-c3cc(C)c(OCC(O)CSc4ncn[nH]4)c(C)c3)nc12` (centres unmarked) [Example 293], the “% Activation (Edg-1 receptor activation in percent of the activation by 10 μM S1P)” value is 99%. On to `COc1cccc(-c2nc3c(OCC(C)C)nc(Cc4ccccc4)nc3o2)c1` [Example 189], for which the “% Activation (Edg-1 receptor activation in percent of the activation by 10 μM S1P)” value came out at 114%. On the same count and under the same terms, the same measure for `C=CCCOc1nc(Cc2ccc(Cl)cc2)nc2oc(-c3cccc(C)c3)nc12` [Example 121]: 99%; for `CCOc1nc(Cc2ccc(Cl)cc2)nc2oc(-c3cc(C)c(OCC(O)C[S+]([O-])c4ncn[nH]4)c(C)c3)nc12` (centres unmarked) [Example 286]: 114%; for `CCCOc1nc(CN2C(C(=O)O)CCS2(=O)=O)nc2oc(-c3cccc(F)c3)nc12` (centres unmarked) [Example 180]: 41%. Same read-out and setting: the figure for `CCCOc1nc(Cc2ccc(Cl)cc2)nc2oc(-c3ccc(Cl)nc3)nc12` [Example 201] is 68%. Consider `CCCOc1nc(Cc2ccc(Cl)cc2)nc2oc(-c3ccc(O)c(F)c3)nc12` [Example 152], for which the “% Activation (Edg-1 receptor activation in percent of the activation by 10 μM S1P)” value turned out to be 100%. For `CCCOc1nc(CN2C(=O)COCC2=O)nc2oc(-c3cccc(F)c3)nc12` [Example 62], the “% Activation (Edg-1 receptor activation in percent of the activation by 10 μM S1P)” value turned out to be 94%. The same measure, in the same setting: the same measure for `CCCOc1nc(Cc2ccc(Cl)cc2)nc2oc(-c3ccc(OCC(O)CN)c(Cl)c3)nc12` (centres unmarked) [Example 207]: 302%; for `Cc1cccc(-c2nc3c(OC(C)C)nc(CN4CCOCC4)nc3o2)c1` [Example 186]: 123%; for `CCCOc1nc(Cc2ccc(Cl)cc2)nc2oc(-c3cc(C)c(OCC(=O)N4CCC(C(=O)O)C4)c(C)c3)nc12` (centres unmarked) [Example 243]: 106%.

On to `CCCOc1nc(CC2CCC2)nc2oc(-c3cccc(C)c3)nc12` [Example 162], for which the “% Activation (Edg-1 receptor activation in percent of the activation by 10 μM S1P)” value worked out at 108%.

On to `Cc1cc(-c2nc3c(OC(C)C)nc(Cc4ccc(Cl)cc4)nc3o2)cc(C)c1OCC(O)CN1CCOCC1` (centres unmarked) [Example 194], for which the “% Activation (Edg-1 receptor activation in percent of the activation by 10 μM S1P)” value is reported as 98%.

Consider `Cc1cccc(-c2nc3c(OCC4CC4)nc(CC4CCC4)nc3o2)c1` [Example 165], for which the “% Activation (Edg-1 receptor activation in percent of the activation by 10 μM S1P)” value is on record as 97%. For the compound `CCCOc1nc(Cc2cc(OC)cc(OC)c2)nc2oc(-c3cccc(C)c3)nc12` [Example 166], the “% Activation (Edg-1 receptor activation in percent of the activation by 10 μM S1P)” value turned out to be 42%. As for `C=CCOc1nc(Cc2ccc(Cl)cc2)nc2oc(-c3cccc(C)c3)nc12` [Example 116], the “% Activation (Edg-1 receptor activation in percent of the activation by 10 μM S1P)” value is on record as 136%. Consider `CCOc1nc(Cc2ccc(Cl)cc2)nc2oc(-c3cc(C)c(OCC(=O)N4CC[C@@H]5C[C@@]54C(=O)O)c(C)c3)nc12` [Example 318], for which the “% Activation (Edg-1 receptor activation in percent of the activation by 10 μM S1P)” value is listed as 101%. The same measure, in the same setting: the same measure for `CCCOc1nc(Cc2ccc(Cl)cc2)nc2oc(-c3cccnc3)nc12` [Example 122]: 103%; for `CCOc1nc(Cc2ccc(Cl)cc2)nc2oc(-c3cc(C)c(OCC(=O)NCCCC(=O)O)c(C)c3)nc12` [Example 288]: 113%; for `C#CCOc1nc(Cc2ccc(Cl)cc2)nc2oc(-c3cccnc3)nc12` [Example 123]: 47%. For the compound `CCOc1nc(Cc2ccc(Cl)cc2)nc2oc(-c3cc(C)c(OCCCNCCc4nc(O)n[nH]4)c(C)c3)nc12` [Example 285], the “% Activation (Edg-1 receptor activation in percent of the activation by 10 μM S1P)” value amounted to 146%.

As to `CCCOc1nc(Cn2cncc2C(=O)OC)nc2oc(-c3cccc(F)c3)nc12` [Example 60], the “% Activation (Edg-1 receptor activation in percent of the activation by 10 μM S1P)” value turned out to be 64%. The same measure, in the same setting: the same measure for `CCCOc1nc(Cc2ccc(Cl)cc2)nc2oc(-c3cc(C)c(OCCCNCCC(=O)O)c(C)c3)nc12` [Example 224]: 113%; for `CCOc1nc(Cc2ccc(Cl)cc2)nc2oc(-c3cc(C)c(OC)c(C)c3)nc12` [Example 190]: 66%. On to `CCOc1nc(Cc2ccc(Cl)cc2)nc2oc(-c3cc(C)c(OCC(=O)NCC(=O)OC(C)(C)C)c(C)c3)nc12` [Example 250], for which the “% Activation (Edg-1 receptor activation in percent of the activation by 10 μM S1P)” value is recorded as 72%. `CCCOc1nc(Cc2ccc(Cl)cc2)nc2oc(-c3cc(C)c(OCC(O)CN(C)C)c(C)c3)nc12` (centres unmarked) [Example 192]: the “% Activation (Edg-1 receptor activation in percent of the activation by 10 μM S1P)” value is listed as 60%.

For the compound `CCOc1nc(Cc2ccc(Cl)cc2)nc2oc(-c3cc(C)c(OCC(=O)NCCS(N)(=O)=O)c(C)c3)nc12` [Example 287], the “% Activation (Edg-1 receptor activation in percent of the activation by 10 μM S1P)” value was 112%.

Regarding `CCCOc1nc(Cc2ccc(Cl)cc2)nc2oc(-c3cc(C)c(OCC(=O)NCC4CC4)c(C)c3)nc12` [Example 254], the “% Activation (Edg-1 receptor activation in percent of the activation by 10 μM S1P)” value is recorded as 86%. On the same count and under the same terms, the figure for `CCCOc1nc(CN2CCCOCC2)nc2oc(-c3cccc(F)c3)nc12` [Example 34] is 90%.

The experiment is the same for the next values; noted with them: example compound at 10 μM; relative to 10 μM S1P; GTP-γ-S SPA, human Edg-1 membranes; read-out: % Activation (Edg-1 receptor activation in percent of the activation by 10 μM S1P).
In the case of `CCCOc1nc(Cc2ccc(Cl)c(Cl)c2)nc2oc(-c3cccc(C)c3)nc12` [Example 11, 5-(3,4-Dichloro-benzyl)-7-propoxy-2-(3-methyl-phenyl)-oxazolo[5,4-d]pyrimidine], the activation at 10 µM was 39%. `CCCOc1nc(Cc2ccc(Cl)cc2)nc2oc(-c3cc(C)c(OCC(O)CN)c(C)c3)nc12` (centres unmarked) [Example 20, 1-Amino-3-{4-[5-(4-chloro-benzyl)-7-propoxy-oxazolo[5,4-d]pyrimidin-2-yl]-2,6-dimethyl-phenoxy}-propan-2-ol]: the activation at 10 µM is 299%.

With `CCOc1nc(C(C)c2ccccc2)nc2oc(-c3cccc(F)c3)nc12` (centres unmarked) [Example 15, 7-ethoxy-2-(3-fluoro-phenyl)-5-(1-phenyl-ethyl)-oxazolo[5,4-d]pyrimidine], the activation at 10 µM worked out at 104%.

For `CCCOc1nc(Cc2ccc(Cl)cc2)nc2oc(-c3cc(C)c(OCC(=O)O)c(C)c3)nc12` [Example 198, {4-[5-(4-Chloro-benzyl)-7-propoxy-oxazolo[5,4-d]pyrimidin-2-yl]-2,6-dimethyl-phenoxy}-acetic acid], the activation at 10 µM came out at 111%.
